Experimental findings from article PMC7397249, “Properly Substituted Cyclic Bis-(2-bromobenzylidene) Compounds Behaved as Dual p300/CARM1 Inhibitors and Induced Apoptosis in Cancer Cells” (Molecules, 2020) are described below.

The target in test [1] is T1, p300 (Homo sapiens, UniProt Q09472).
T1 construct: p300 (aa 1284–1673, 30 nM); purchased Reaction Biology Corporation
T1 sequence (Q09472 1284-1673): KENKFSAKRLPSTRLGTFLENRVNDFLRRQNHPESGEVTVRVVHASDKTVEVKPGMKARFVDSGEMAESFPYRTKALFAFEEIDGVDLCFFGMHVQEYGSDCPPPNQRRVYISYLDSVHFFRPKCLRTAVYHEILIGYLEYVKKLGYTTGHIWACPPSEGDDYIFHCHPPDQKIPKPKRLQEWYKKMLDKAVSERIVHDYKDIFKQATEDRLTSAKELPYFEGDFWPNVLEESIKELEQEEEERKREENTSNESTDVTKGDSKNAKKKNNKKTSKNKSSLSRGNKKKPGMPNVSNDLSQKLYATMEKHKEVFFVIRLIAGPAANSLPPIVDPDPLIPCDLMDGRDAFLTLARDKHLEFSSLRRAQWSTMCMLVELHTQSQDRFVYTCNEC
Briefly: HotSpot HAT activity assay, p300. The class given is biochemical. Conditions: 10-dose, triplicate, from 200 μM; histone H3, [acetyl-3H]-acetyl-CoA. As for the experimental part: (§1) The newly synthesized compounds 4a–n were tested to determine their effects against acetylation and methylation epigenetic targets. First, 4a–n were screened in vitro against the two HAT enzymes p300 and PCAF. […] To determine the activity against SIRT1 and -2, 4a–n were tested starting from 200 μM solutions using a modified Fluor de Lys fluorescence-based assay with amino acids 379–382 (Arg-His-Lys-Lys(Ac)) of human p53 conjugated with aminomethylcoumarin as substrate and NAD^+ as co-substrate. […] Furthermore, 4a–n were tested against a human five-membered Polycomb repressive complex 2 (PRC2) containing EZH2, embryonic ectoderm development (EED), suppressor of zeste 12 (SUZ12), RbAp48, and adipocyte enhancer-binding protein (AEBP2), to assess their capability to inhibit the catalytic unit EZH2.
(§2) The effect of tested derivatives on the catalytic activity of p300 and PCAF was determined in a HotSpot HAT activity assay by Reaction Biology Corporation (Malvern, PA, USA) according to the company’s standard operating procedure. In brief, the recombinant catalytic domains of PCAF (aa 492–658, 250 nM) or p300 (aa 1284–1673, 30 nM) were incubated with histone H3 as substrate (5 µM) and [Acetyl-^3H]-Acetyl Coenzyme A (3 µM) as an acetyl donor in reaction buffer (50 mM Tris-HCl (pH 8.0), 50 mM NaCl, 0.1 mM EDTA, 1 mM DTT, 1 mM PMSF, 1% DMSO) for 1 h at 30 °C in the presence or absence of a dose titration of the compounds. The reaction mixture was delivered to filter-paper for detection. IC50 values were analyzed using Excel and GraphPad Prism 6.0 software (GraphPad Software Inc., San Diego, CA, USA). The experiments for p300 were performed in triplicate.

The target in a further test is T2, PCAF (Homo sapiens, UniProt Q92831).
T2 construct: PCAF (aa 492–658, 250 nM); purchased Reaction Biology Corporation
T2 sequence (Q92831 492-658): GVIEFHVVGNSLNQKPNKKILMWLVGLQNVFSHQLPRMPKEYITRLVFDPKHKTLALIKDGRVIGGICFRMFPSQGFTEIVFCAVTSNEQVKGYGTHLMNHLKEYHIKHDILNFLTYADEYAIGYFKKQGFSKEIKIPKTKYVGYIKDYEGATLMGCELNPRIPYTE
In words: HotSpot HAT activity assay, PCAF. The class given is biochemical. As to conditions: 10-dose, from 200 μM; histone H3, [acetyl-3H]-acetyl-CoA. How it is done:
as §1, §2

Another test has as its target T3, SIRT1 (Homo sapiens, UniProt Q96EB6).
T3 construct: host or cells: E. coli
In words: Modified Fluor de Lys fluorescence-based assay, SIRT1. It is filed as biochemical. Conditions: from 200 μM; p53 379-382 AMC substrate, NAD+. As for the experimental part:
as §1
The SIRT inhibition assay was performed using human recombinant SIRT1 and SIRT2 produced in E. coli. Compounds were tested using a modified Fluor de Lys fluorescence-based assay kit based on the method described in the BioMol product sheet (AK-555, AK-556, Milan, Italy). […] The second stage is initiated by the addition of the Developer II (KI176), including nicotinamide (NAM), nicotinamide that stops the SIRT1/2 activity, and the fluorescent signal is produced. The fluorescence was measured on a fluorometric reader (Infinite 200 TECAN, Männedorf, Switzerland) with excitation set at 360 nm and emission detection set at 460 nm.

The test system of test [2] is p300. Briefly: Western blot of acetylation marks (p300 inhibition) in MCF-7 cells. It is filed as cell-based, human. Conditions: 5 μM, 30 h. How it is done: In MCF-7 cells, the levels of acetyl-H3, acetyl-H4, H3K27me3, and H3R17me2 were detected by western blot analyses as functional tests for p300 (acH3 and acH4), EZH2 (H3K27me3) and CARM1 (H3R17me2) inhibition in cells, respectively (Figure 5).
(§3) The procedures were performed as described in [30, 31]. Primary antibodies used were: Ac-H3 (Millipore, Milan, Italy); Ac-H4 (Millipore, Milan, Italy); Ac-H3K9-14 (Diagenode, Ougrée, Belgium); Ac-α-tubulin (Sigma-Aldrich), H3K27me3 (Diagenode); H3R17me2 (Diagenode); EZH2 (Abcam, Cambridge, UK). H3 (Sigma-Aldrich), H4 (Abcam), GAPDH (Sigma) and ERKs (Santa Cruz, Biotechnology, TX, USA) were used to normalize the total protein extracts (see also Supplementary Material).
A general note: In western blotting, separated proteins are transferred to a membrane and probed.

The subject of the next test is U937 cells. Briefly: Cell cycle and apoptosis (sub-G1) analysis by FACS in U937 cells. It is filed as cell-based, human. As to conditions: 5 μM, 30 h. As for the experimental part: Compounds 4a–n were tested at 5 μM for 30 h in NB4 […] and U937 AML cells among hematological cancers, and in MCF-7 breast cancer and SH-SY5Y neuroblastoma cells among solid cancers, to determine their effects in cell cycle and apoptosis induction.
In the same cell lines, the induction of apoptosis has been evaluated through the percentage of the sub-G1 peaks.
For colorimetric exclusion, the cells (2 × 10^5 cells/mL) were plated in multiwells in triplicate. After stimulations at different times and concentrations, cells were diluted in the ratio 1:1 in Trypan Blue (Sigma) and counted with an optical microscope. For cell cycle analyses, cells were plated (2 × 10^5 cells/mL) and were harvested, centrifuged at 1200 rpm for 5 min and resuspended in 500 μL of a hypotonic solution containing 1× PBS, Sodium Citrate 0.1%, 0.1% NP-40, RNAase A and […] Propidium Iodide (PI). After 30 min at room temperature (RT) in the dark, samples were acquired by FACS-Calibur (BD Bioscences, San Jose, CA, USA) using CellQuest software (BD Biosciences). The percentage in different phases of the cell cycle was determined by ModFit LT V3 software (Verity). All experiments were performed in triplicate. Cell death was measured as percentage of cells in sub-G1 phase as in [30].
In general terms: In flow cytometry, cells or beads pass a laser one at a time.

Another test has as its system CARM1. Briefly: Western blot of H3R17me2 (CARM1 inhibition) in NB4 cells. It is filed as cell-based, human. As to conditions: 5 μM, 30 h.
Excerpt: In NB4 cells, the levels of acetyl-H3 (acH3) and acetyl-H4 (acH4) as well as those of acetyl-H3K9/14 (AcH3K9/14, see Supplementary material) and of the non-histone substrate acetyl-α-tubulin (Ac-Tubulin) were detected as an index of p300 inhibition (Figure 4). In the same cell line, the levels of H3K27me3, histone mark of the EZH2 catalytic activity (Figure 4), as well as the level of the EZH2 expression (see Supplementary material) have been determined. Last, the amount of H3R17me2, the functional read-out of CARM1 inhibition, was determined (Figure 4).
as §3

T3 sequence (Q96EB6 whole entry): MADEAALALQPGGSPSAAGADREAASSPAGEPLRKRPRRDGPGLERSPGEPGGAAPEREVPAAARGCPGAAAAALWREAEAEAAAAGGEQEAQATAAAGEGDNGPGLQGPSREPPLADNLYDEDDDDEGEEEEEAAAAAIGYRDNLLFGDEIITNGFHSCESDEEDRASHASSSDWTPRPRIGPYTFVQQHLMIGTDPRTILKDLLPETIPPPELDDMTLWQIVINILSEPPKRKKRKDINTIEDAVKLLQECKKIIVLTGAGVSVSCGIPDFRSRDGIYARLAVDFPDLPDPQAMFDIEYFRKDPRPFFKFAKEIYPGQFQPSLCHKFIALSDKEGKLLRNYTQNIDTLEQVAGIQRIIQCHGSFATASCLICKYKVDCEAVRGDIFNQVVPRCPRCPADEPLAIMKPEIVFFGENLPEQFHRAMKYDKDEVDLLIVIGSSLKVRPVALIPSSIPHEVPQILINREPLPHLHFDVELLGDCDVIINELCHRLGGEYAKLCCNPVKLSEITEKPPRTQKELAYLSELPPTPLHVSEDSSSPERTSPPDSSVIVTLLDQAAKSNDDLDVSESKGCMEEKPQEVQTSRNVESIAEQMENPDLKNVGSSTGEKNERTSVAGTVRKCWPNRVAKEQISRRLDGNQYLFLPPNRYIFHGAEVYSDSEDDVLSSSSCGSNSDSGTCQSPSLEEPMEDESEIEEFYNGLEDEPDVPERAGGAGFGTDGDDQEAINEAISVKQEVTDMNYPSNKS

For the compound `O=C1/C(=C/c2ccccc2Br)CN(Cc2ccccc2)C/C1=C\c1ccccc1Br` [Compound 4e, 1-benzyl-3,5-bis((E)-2-bromobenzylidene)piperidin-4-one], the values for the IC50 at p300 [1], against PCAF and against SIRT1 were 2.19 ± 0.77 µM, greater than 200 µM and greater than 200 µM, respectively. The “levels of acetyl-H4” value in the test with p300 [2] was “decrease of the acetylation levels”.
For `O=C1/C(=C/c2ccccc2Br)CN(CCc2ccccc2)C/C1=C\c1ccccc1Br` [Compound 4f, 3,5-Bis((E)-2-bromobenzylidene)-1-phenethylpiperidin-4-one], the 50% inhibitory concentration (IC50) (usually the concentration needed to halve the response being measured) is 30.2 ± 2.71 µM at p300 [1], greater than 200 µM against PCAF and greater than 200 µM against SIRT1. Further, the “effect on cell cycle phases” value with U937 cells is given as “block in G2/M phase”.
Take `O=C1/C(=C/c2ccccc2Br)CN(CCCc2ccccc2)C/C1=C\c1ccccc1Br` [Compound 4g, 3,5-Bis((E)-2-bromobenzylidene)-1-(3-phenylpropyl)piperidin-4-one]: the figures for the 50% inhibitory concentration (IC50) against p300 [1], at PCAF and against SIRT1 were 40.7 ± 2.39 µM, greater than 200 µM and greater than 200 µM, respectively. For the same compound, in the test with U937 cells, the “effect on cell cycle phases” value is listed as “arrested the cell cycle at the G1/S phase”.
Take `O=C1/C(=C/c2ccccc2Br)CN(CC(=O)c2ccccc2)C/C1=C\c1ccccc1Br` [Compound 4h, 3,5-Bis((E)-2-bromobenzylidene)-1-(2-oxo-2-phenylethyl)piperidin-4-one]: the results for the IC50 against p300 [1], on PCAF and against SIRT1 were 1.03 ± 0.22 µM, greater than 200 µM and greater than 200 µM, respectively. For the same compound, in the test with CARM1, the “levels of H3R17me2” value was “most effective”.
As for `O=C1/C(=C/c2ccccc2Br)CN(CCCC(=O)c2ccccc2)C/C1=C\c1ccccc1Br` [Compound 4j, 3,5-Bis((E)-2-bromobenzylidene)-1-(4-oxo-4-phenylbutyl)piperidin-4-one], the results for the IC50 at p300 [1], against PCAF and against SIRT1 were 2.13 ± 1.35 µM, greater than 200 µM and greater than 200 µM, respectively. Further, in the test with p300 [2], the “levels of acetyl-H4” value is “decrease of the acetylation levels”.
Regarding `O=C1/C(=C/c2ccccc2Br)CN(C(=O)c2ccccc2)C/C1=C\c1ccccc1Br` [Compound 4k, 1-Benzoyl-3,5-bis((E)-2-bromobenzylidene)piperidin-4-one], the figures for the half-maximal inhibitory concentration (IC50) on p300 [1], against PCAF and against SIRT1 were 2.09 ± 0.79 µM, greater than 200 µM and greater than 200 µM, respectively. Also, in the test with p300 [2], the “levels of acetyl-α-tubulin” value is “decrease of the acetylation levels”.
`O=C1/C(=C/c2ccccc2Br)CN(C(=O)Cc2ccccc2)C/C1=C\c1ccccc1Br` [Compound 4l, 3,5-Bis((E)-2-bromobenzylidene)-1-(2-phenylacetyl)piperidin-4-one]: the IC50 against p300 [1] is 0.45 ± 0.03 µM; on PCAF, greater than 200 µM; against SIRT1, greater than 200 µM. Also, the “effect on cell cycle phases” value in the test with U937 cells is reported as “block in G2/M phase”. Besides, the “levels of H3R17me2” value in the test with CARM1 is “most effective”. Moreover, the “levels of acetyl-H4” value in the test on p300 [2] is “decrease of the acetylation levels”.
For `O=C1/C(=C/c2ccccc2Br)CN(C(=O)CCc2ccccc2)C/C1=C\c1ccccc1Br` [Compound 4m, 3,5-Bis((E)-2-bromobenzylidene)-1-(3-phenylpropanoyl)piperidin-4-one], the IC50 was 0.46 ± 0.1 µM against p300 [1], greater than 200 µM against PCAF and greater than 200 µM against SIRT1. Moreover, the “effect on cell cycle phases” value with U937 cells was “block in G2/M phase”. For the same compound, the “levels of H3R17me2” value in the test with CARM1 was “most effective”.
Take `O=C1/C(=C/c2ccccc2Br)CN(C(=O)C=Cc2ccccc2)C/C1=C\c1ccccc1Br` [Compound 4n, 3,5-Bis((E)-2-bromobenzylidene)-1-cinnamoylpiperidin-4-one]: the IC50 at p300 [1] was 1.23 ± 0.29 µM; against PCAF it was greater than 200 µM; on SIRT1, greater than 200 µM. Besides, in the test with U937 cells, the “effect on cell cycle phases” value is reported as “arrested the cell cycle at the G1/S phase”. In the test with p300 [2], the “levels of acetyl-H4” value is listed as “decrease of the acetylation levels”.
